Results on 2 compounds are retold here after US9029325B2, “Amylin analogues and pharmaceutical compositions thereof” (Novo Nordisk A/S, priority 2011, dated 2015).

This experiment can be described thus: Assay (I) efficacy testing on appetite (food intake), ad libitum fed rat model. To be noted: 3 nmol/kg. The format is in vivo, Sprague Dawley (SD) rats. The source says:
Sprague Dawley (SD) rats from Taconic Europe, Denmark are used for the experiments. The rats have a body weight 200-250 g at the start of experiment. The rats arrive at least 10-14 days before start of experiment to allow acclimatization to experimental settings. During this period the animals are handled at least 2 times. After arrival rats are housed individually for one week in a reversed light/dark phase (meaning that lights are off during daytime and on during nighttime) […]. Since rats are normally active and eat their major part of their daily food intake during the dark period, rats are dosed in the morning right before lights are turned off. This set-up results in the lowest data variation and highst test sensitivity. The experiment is conducted in the rats' home cages and rats have free access to food and water througout the acclimatization period and the experiment period. Each dose of derivative is tested in a group of 5-8 rats. A vehicle group of 6-8 rats is included in each set of testing. Rats are dosed once according to body weight with a 0.01-3 mg/kg solution administered intraperitoneally (ip), orally (po) or subcutaneously (sc). The time of dosing is recorded for each group. After dosing, the rats are returned to their home cages, where they then have access to food and water. The food consumption is recorded individually continuously by on-line registration or manually every hour for 7 hours, and then after 24 h and sometimes 48 h. At the end of the experimental session, the animals are euthanised.
The individual data are recorded in Microsoft excel sheets. Outliers are excluded after applying the Grubbs statistical evaluation test for outliers, and the result is presented graphically using the GraphPad Prism program.

Starred links: 1 amine or outer side, 2 acyl side, 3 side chain; linkers in the order of their positions; H or OH if unused. Positions of bridges follow the written chain, without caps; N, C: chain ends. Residues, ends and D or L forms follow the SMILES beside them. *: point of attachment. C20 diacid = O=C(O)CCCCCCCCCCCCCCCCCCC(=O)*; C18 diacid = O=C(O)CCCCCCCCCCCCCCCCC(=O)*; γGlu = O=C(O)[C@H](CCC(=O)[*:2])N[*:1]

As to `CC[C@H](C)[C@H](NC(=O)[C@@H]1CCCN1C(=O)CNC(=O)[C@H](Cc1ccccc1)NC(=O)[C@H](CC(N)=O)NC(=O)[C@H](CC(N)=O)NC(=O)[C@H](CO)NC(=O)[C@H](CO)NC(=O)[C@H](Cc1c[nH]cn1)NC(=O)[C@H](Cc1c[nH]cn1)NC(=O)[C@H](CC(C)C)NC(=O)[C@H](Cc1ccccc1)NC(=O)[C@H](CCC(=O)O)NC(=O)[C@H](C)NC(=O)[C@H](CC(C)C)NC(=O)[C@H](CCCNC(=N)N)NC(=O)[C@H](CCC(N)=O)NC(=O)[C@@H](NC(=O)[C@H](C)NC(=O)[C@@H]1CSSC[C@H](NC(=O)[C@H](CCCCN)NC(=O)[C@H](CCC(=O)O)NC(=O)CC[C@H](NC(=O)CCCCCCCCCCCCCCCCC(=O)O)C(=O)O)C(=O)N[C@@H](CC(N)=O)C(=O)N[C@@H]([C@@H](C)O)C(=O)N[C@@H](C)C(=O)N[C@@H]([C@@H](C)O)C(=O)N1)[C@@H](C)O)C(=O)N[C@@H](CC(C)C)C(=O)N1CCC[C@H]1C(=O)N1CCC[C@H]1C(=O)N[C@H](C(=O)N[C@@H](CC(N)=O)C(=O)N[C@H](C(=O)NCC(=O)N[C@@H](CO)C(=O)N[C@@H](CC(N)=O)C(=O)N[C@H](C(=O)N[C@@H](Cc1ccc(O)cc1)C(N)=O)[C@@H](C)O)C(C)C)[C@@H](C)O` [Example 42, N-alpha-[(S)-4-Carboxy-4-(17-carboxyheptadecanoylamino)butyryl]-Glu-[Glu14, His17]-pramlintide] ({C18 diacid-γGlu}-EKCNTATCATQRLAEFLHHSSNNFGPILPPTNVGSNTY-NH2; disulfide 3-8 (inferred); C-terminus assumed), the “Food intake reduction 0-24 h 3 nmol/kg (%)” value was found to be 45% and the “Food intake reduction 24-48 h 3 nmol/kg (%)” value is on record as 5%.

In the case of `CC[C@H](C)[C@H](NC(=O)[C@@H]1CCCN1C(=O)CNC(=O)[C@H](Cc1ccccc1)NC(=O)[C@H](CC(N)=O)NC(=O)[C@H](CCC(N)=O)NC(=O)[C@H](CO)NC(=O)[C@H](CO)NC(=O)[C@H](Cc1c[nH]cn1)NC(=O)[C@H](Cc1c[nH]cn1)NC(=O)[C@H](CC(C)C)NC(=O)[C@H](Cc1ccccc1)NC(=O)[C@H](CCC(=O)O)NC(=O)[C@H](C)NC(=O)[C@H](CC(C)C)NC(=O)[C@H](CCCNC(=N)N)NC(=O)[C@H](CCC(N)=O)NC(=O)[C@@H](NC(=O)[C@H](C)NC(=O)[C@@H]1CSSC[C@H](NC(=O)[C@H](CCCCN)NC(=O)CC[C@H](NC(=O)CCCCCCCCCCCCCCCCCCC(=O)O)C(=O)O)C(=O)N[C@@H](CC(N)=O)C(=O)N[C@@H]([C@@H](C)O)C(=O)N[C@@H](C)C(=O)N[C@@H]([C@@H](C)O)C(=O)N1)[C@@H](C)O)C(=O)N[C@@H](CC(C)C)C(=O)N1CCC[C@H]1C(=O)N1CCC[C@H]1C(=O)N[C@H](C(=O)N[C@@H](CC(N)=O)C(=O)N[C@H](C(=O)NCC(=O)N[C@@H](CO)C(=O)N[C@@H](Cc1c[nH]cn1)C(=O)N[C@H](C(=O)N[C@@H](Cc1ccc(O)cc1)C(N)=O)[C@@H](C)O)C(C)C)[C@@H](C)O` [compound 117] ({C20 diacid-γGlu}-KCNTATCATQRLAEFLHHSSQNFGPILPPTNVGSHTY-NH2; disulfide 2-7 (inferred); C-terminus assumed), the “Food intake reduction 0-24 h 3 nmol/kg (%)” value was 50% and the “Food intake reduction 24-48 h 3 nmol/kg (%)” value is listed as 35%.
